Assay [1] can be described thus: cytotoxicity in HepG2 cells, cytotoxicity control, cell-based (AID 504642). Conditions: HepG2 viability, cytotoxicity counter-screen. Background: The purpose of a counterscreen is to sort out artefacts and off-target activity.
The test system of assay [2] is HepG2 viability, cytotoxicity counter-screen. The assay is described as above.

The record followed here is PubChem BioAssay AID504642 (Southern Research Specialized Biocontainment Screening …, 2011).

In general, viability refers to a read-out of living cells in per cent, often relative to untreated cells. As a reminder, the CC50 is the concentration giving 50% cytotoxicity.

Structures are written as SMILES. The source made the active and inactive calls. How the calls were made is not given here.

With `Cc1nc(SCC(=O)NC2CCCCC2)[nH]c(=O)c1C`, the viability in assay [1] (at 50 µM (top of the series)) was 105% (inactive).

For `CC[N+](C)(CC)CCCCOc1ccc2c(c1)C(=O)c1cc(OCCCC[N+](C)(CC)CC)ccc1-2`, the viability in assay [1] (at 50 µM (top of the series)) is 93.8% (inactive).

On to `CCOC(=O)c1ccc(NC(=O)Cn2ncc(Cl)c(Cl)c2=O)cc1`, for which the CC50 in assay [2] is 8.43 µM.

On to `Cc1cccc(/C=C/C(=O)c2ccc([N+](=O)[O-])o2)c1`, for which the CC50 in assay [2] was 7.91 µM.

`COC(=O)C(C)Oc1ccc(-c2nccc(-c3ccccn3)n2)cc1` (stereo unspecified): the viability in assay [1] (at 50 µM (top of the series)) was 95.4% (inactive).

Turning to `CC(=NCc1ccc2c(c1)OCO2)C1=C(O)c2ccccc2C1=O`, the viability in assay [1] (at 50 µM (top of the series)) was 96.6% (inactive).

With `Cc1cccc(-c2oc3ccc(-c4ccc5c(c4)OCO5)cc3c2C#Cc2cncn2C)c1`, in assay [2], the CC50 was 44.4 µM.

For `CCc1ccc(/C=C2/C(=O)N(C)C(=S)N2CC(=O)OC)s1`, the viability in assay [1] (at 50 µM (top of the series)) is 78.9% (inactive).

`COC(=O)C(Nc1nc(SCC(=O)NC2CCCCC2)nc2ccccc12)c1ccccc1` (stereo unspecified): the viability in assay [1] (at 25 µM (top of the series)) is 100% (inactive).

For the molecule `Cc1ccc2c(c1)c(C1=c3ccccc3=NC1=O)c(O)n2C`, the CC50 in assay [2] was 12.9 µM.

With `CC(C)NC(=O)c1sc(=S)n2c1[nH]c(=O)c1ccc(C(=O)NCCc3ccc(Cl)cc3)cc12`, in assay [2], the CC50 was 46.1 µM.

For `CCC(C)Nc1ccc(NC(C)CC)cc1` (stereo unspecified), the CC50 in assay [2] is 6.41 µM.

Turning to `Cc1ccc2ccc3ccc(C)nc3c2n1`, the CC50 in assay [2] is less than 0.195 µM.

Take `CC1CCN(C(=O)C2CCN(c3nnc(-n4cccc4)s3)CC2)CC1`: the viability in assay [1] (at 50 µM (top of the series)) is 81.6% (inactive).

For the molecule `Cc1ccc(C(=O)N/N=C(/CC(=O)c2cccs2)C(F)(F)F)cc1`, in assay [2], the CC50 is 27.5 µM.

Turning to `COC(=O)C1CC(=O)N(c2ccc(OCc3ccccc3Cl)cc2)C1` (stereo unspecified), the viability in assay [1] (at 50 µM (top of the series)) was 98.6% (inactive).

Regarding `CCOC1OC(=O)C(Cl)=C1Nc1ccccc1C` (stereo unspecified), the viability in assay [1] (at 50 µM (top of the series)) is 97.8% (inactive).

Consider `Oc1ccccc1/C=N/Nc1ccnc(SCc2ccccc2)n1`, for which the 50% cytotoxic concentration (CC50) in assay [2] was 20.1 µM.

On to `CNc1nc(SCc2ccccc2Cl)nc2c1CCCC2`, for which the CC50 in assay [2] was 26.2 µM.

Regarding `CCOC(=O)CNC(=O)[C@H](Cc1ccccc1)NC(=O)OCc1ccccc1`, the viability in assay [1] (at 50 µM (top of the series)) was 97.3% (inactive).

Consider `O=C(/C=C/c1ccccc1)N1CCN(CCN2C(=O)c3cccc4cccc(c34)C2=O)CC1`, for which, in assay [1] (at 25 µM (top of the series)), the viability is 91.1% (inactive).

As for `O=C(/C=C\c1cccs1)N1CCN(Cc2ccc3c(c2)OCO3)CC1`, in assay [1] (at 50 µM (top of the series)), the viability is 84.1% (inactive).

Take `CCOC(=O)COc1ccc(/C=C2\NC(=S)N(CC)C2=O)cc1`: the viability in assay [1] (at 50 µM (top of the series)) is 94.6% (inactive).

Take `Cc1nn2c(NCc3ccccn3)cc(C(C)C)nc2c1-c1ccccc1`: the CC50 in assay [2] is less than 0.098 µM.

Regarding `O=C(CSc1nc2ccccc2c(=O)[nH]1)NCc1ccc(Cl)cc1`, the viability in assay [1] (at 50 µM (top of the series)) was 90.7% (inactive).

Turning to `COC(=O)CCc1nc2c(C#N)c(-c3ccc(Cl)cc3)ccn2n1`, in assay [1] (at 50 µM (top of the series)), the viability is 102% (inactive).

In the case of `c1ccc(/N=C2\N=C(Nc3ccccn3)c3ccccc32)nc1`, the CC50 in assay [2] is less than 0.098 µM.

Take `Cc1ccc(NC(=O)C2C3/C=C\CCCCC32)cc1C` (stereo unspecified): the viability in assay [1] (at 50 µM (top of the series)) is 101% (inactive).

Turning to `COC(=O)c1cc(=O)n(-c2ccc(F)cc2)c(=Nc2ccc(F)cc2)s1`, the 50% cytotoxic concentration (CC50) in assay [2] is 19.4 µM.

With `CCOC(=O)COn1c2c(c3c4no[n+]([O-])c4ccc31)CCCC2`, in assay [1] (at 50 µM (top of the series)), the viability is 85.5% (inactive).

With `COc1cc(NC(=O)C/C(C)=N/NC(=O)c2ccccn2)c(OC)cc1Cl`, in assay [1] (at 50 µM (top of the series)), the viability was 86.2% (inactive).

For `S=c1nc[nH]c2nc[nH]c12`, the CC50 in assay [2] was 7.74 µM.

As for `CCOC(=O)C(C)Sc1ncnc2c1nnn2-c1ccc(F)cc1` (stereo unspecified), the viability in assay [1] (at 50 µM (top of the series)) is 94.1% (inactive).

Consider `O=C(CSc1nc2ccccc2c(=O)[nH]1)NC1CCCCC1`, for which the viability in assay [1] (at 50 µM (top of the series)) is 103% (inactive).

`COC(=O)c1ccc(CNc2c(N3CCCC3)c(=O)c2=O)cc1`: the viability in assay [1] (at 50 µM (top of the series)) was 97.5% (inactive).

Take `O=C1C(Br)=Cc2cccc3cccc1c23`: the viability in assay [1] (at 50 µM (top of the series)) was 86.1% (inactive).
